The molecules below were run against T1, human TLR8 (Homo sapiens, UniProt Q9NR97) (assay: HEK293-Blue-hTLR-8 cells assay (SEAP reporter, R848 stimulation)). Conditions: HEK293-Blue-hTLR8 cells, R848, 20 hrs; read-out: HEK/hTLR8 IC50.
T1 construct: host or cells: HEK293 (HEK-Blue hTLR8)
T1 sequence (Q9NR97 27-1041): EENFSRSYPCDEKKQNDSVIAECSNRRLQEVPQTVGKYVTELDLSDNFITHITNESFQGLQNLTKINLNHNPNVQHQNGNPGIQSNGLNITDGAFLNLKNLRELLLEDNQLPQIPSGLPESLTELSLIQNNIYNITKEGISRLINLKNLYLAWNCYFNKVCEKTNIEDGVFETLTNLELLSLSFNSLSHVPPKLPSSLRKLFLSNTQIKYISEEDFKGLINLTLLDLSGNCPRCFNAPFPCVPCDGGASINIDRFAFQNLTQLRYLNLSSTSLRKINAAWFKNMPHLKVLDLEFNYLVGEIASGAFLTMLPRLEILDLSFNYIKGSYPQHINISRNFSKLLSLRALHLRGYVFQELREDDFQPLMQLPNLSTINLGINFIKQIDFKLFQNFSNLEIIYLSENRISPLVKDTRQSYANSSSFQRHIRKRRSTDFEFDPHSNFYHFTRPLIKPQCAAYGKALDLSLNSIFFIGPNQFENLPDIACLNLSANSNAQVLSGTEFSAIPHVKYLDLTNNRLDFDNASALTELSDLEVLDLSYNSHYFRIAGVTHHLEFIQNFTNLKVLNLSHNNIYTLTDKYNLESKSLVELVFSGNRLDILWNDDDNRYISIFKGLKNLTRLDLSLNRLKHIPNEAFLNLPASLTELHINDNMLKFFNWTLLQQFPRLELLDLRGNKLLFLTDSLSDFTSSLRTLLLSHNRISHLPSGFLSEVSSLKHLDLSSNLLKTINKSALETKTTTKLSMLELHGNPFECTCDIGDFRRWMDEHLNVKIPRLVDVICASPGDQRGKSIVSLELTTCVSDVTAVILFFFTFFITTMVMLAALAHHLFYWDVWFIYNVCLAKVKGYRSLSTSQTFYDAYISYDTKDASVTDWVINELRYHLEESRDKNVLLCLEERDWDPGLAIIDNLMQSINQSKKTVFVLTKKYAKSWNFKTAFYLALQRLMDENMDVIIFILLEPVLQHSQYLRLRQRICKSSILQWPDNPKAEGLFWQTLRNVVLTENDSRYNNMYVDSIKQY
Type: cell-based
How it was run: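 Antagonism read as reduced R848-induced SEAP reporter secretion, detected by QUANTI-Blue absorbance at 620–655 nm after 2 h. Reporter cells were exposed to compound dilutions in DMEM/10% FBS, 1% DMSO, for 20 h at 37° C.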
In the case of `CO[C@H]1CN(c2nc(C)cc(N3CCN(C[C@H]4CN(c5ccc(C#N)c6ncccc56)C[C@@H](C)O4)CC3)n2)C[C@H]1N` [Example 60, 5-[(2R,6S)-2-methyl-6-[[4-[6-methyl-2-[cis-3-amino-4-methoxy-pyrrolidin-1-yl]pyrimidin-4-yl]piperazin-1-yl]methyl]morpholin-4-yl]quinoline-8-carbonitrile], the IC50 is reported as 3 nM. Molecule `C[C@@H]1CN(c2ccc(C#N)n3ncc(F)c23)C[C@H](CN2CCN(c3ccc(N4CC5(CN(C)C5)C4)nc3)CC2)O1` [Example 170, 3-fluoro-4-[(2R,6S)-2-methyl-6-[[4-[6-(6-methyl-2,6-diazaspiro[3.3]heptan-2-yl)-3-pyridyl]piperazin-1-yl]methyl]morpholin-4-yl]pyrazolo[1,5-a]pyridine-7-carbonitrile] has an IC50 of 13 nM. Molecule `Cc1cc(N2CCN(C[C@H]3CN(c4ccc(C#N)c5ncccc45)C[C@@H](C)O3)CC2)nc(NC2CNCC2C#N)n1` (stereo partly drawn) [Example 57, 5-[(2S,6R)-2-[[4-[2-[(4-cyanopyrrolidin-3-yl)amino]-6-methyl-pyrimidin-4-yl]piperazin-1-yl]methyl]-6-methyl-morpholin-4-yl]quinoline-8-carbonitrile] has an IC50 of 4 nM. For `C[C@@H]1CN(c2ccc(C#N)n3ncc(F)c23)C[C@H](CN2CCN(c3ccc([C@@H]4CNCCO4)c(F)c3)CC2)O1` [Example 184, 3-fluoro-4-[(2S,6R)-2-[[4-[3-fluoro-4-[(2R)-morpholin-2-yl]phenyl]piperazin-1-yl]methyl]-6-methyl-morpholin-4-yl]pyrazolo[1,5-a]pyridine-7-carbonitrile], the IC50 was 14 nM. `C[C@@H]1CN(c2ccc(C#N)c3ncccc23)C[C@H](CN2CCN(c3ccnc(N4CC(N)C4)n3)CC2)O1` [Example 23, 5-[(2S,6R)-2-[[4-[2-(3-aminoazetidin-1-yl)pyrimidin-4-yl]piperazin-1-yl]methyl]-6-methyl-morpholin-4-yl]quinoline-8-carbonitrile] gave an IC50 of 18 nM. With `C[C@@H]1CN(c2ccc(C#N)n3ncc(F)c23)C[C@H](CN2CCN(c3ccc(N4C[C@H]5NCCO[C@@H]5C4)nc3)CC2)O1` [Example 168, 4-[(2S,6R)-2-[[4-[6-[(4aR,7aR)-3,4,4a,5,7,7a-hexahydro-2H-pyrrolo[3,4-b][1,4]oxazin-6-yl]-3-pyridyl]piperazin-1-yl]methyl]-6-methyl-morpholin-4-yl]-3-fluoro-pyrazolo[1,5-a]pyridine-7-carbonitrile] the IC50 was 57 nM. With `C[C@@H]1CN(c2ccc(C#N)c3ncccc23)C[C@H](CN2CCN(c3ccc(N4CCNCC4)cn3)CC2)O1` [Example 8, 5-[(2R,6S)-2-methyl-6-[[4-(5-piperazin-1-yl-2-pyridyl)piperazin-1-yl]methyl]morpholin-4-yl]quinoline-8-carbonitrile] the IC50 was 10 nM. In the case of `C[C@@H]1CN(c2ccc(C#N)n3ncc(F)c23)C[C@H](CN2CCN(c3ccc(N4CC5(CCN5)C4)nc3)CC2)O1` [Example 179, 4-[(2S,6R)-2-[[4-[6-(1,6-diazaspiro[3.3]heptan-6-yl)-3-pyridyl]piperazin-1-yl]methyl]-6-methyl-morpholin-4-yl]-3-fluoro-pyrazolo[1,5-a]pyridine-7-carbonitrile], the IC50 is reported as 54 nM. `C[C@@H]1CN(c2ccc(C#N)c3ncccc23)C[C@H](CN2CCN(c3ccnc(NC4CNC4)n3)CC2)O1` [Example 28, 5-[(2S,6R)-2-[[4-[2-(azetidin-3-ylamino)pyrimidin-4-yl]piperazin-1-yl]methyl]-6-methyl-morpholin-4-yl]quinoline-8-carbonitrile] was tested, and the IC50 was 4 nM. Molecule `Cc1cc(N2CCN(C[C@H]3CN(c4ccc(C#N)c5ncccc45)C[C@@H](C)O3)CC2)nc(N2C[C@@H](N)[C@@H](F)C2)n1` [Example 55, 5-[(2S,6R)-2-[[4-[2-[(3R,4S)-3-amino-4-fluoro-pyrrolidin-1-yl]-6-methyl-pyrimidin-4-yl]piperazin-1-yl]methyl]-6-methyl-morpholin-4-yl]quinoline-8-carbonitrile] has an IC50 of 3 nM. With `C[C@@H]1CN(c2cc(=O)n(C)c3ncccc23)C[C@H](CN2CC(c3ccc(N4CC(C)(N)C4)cc3)C2)O1` [Example 176, 4-[(2S,6R)-2-[[3-[4-(3-amino-3-methyl-azetidin-1-yl)phenyl]azetidin-1-yl]methyl]-6-methyl-morpholin-4-yl]-1-methyl-1,8-naphthyridin-2-one] the IC50 was 323 nM. `C[C@@H]1CN(c2ccc(C#N)c3ncccc23)C[C@H](CN2CCC(C#N)(c3ccc(N4CCNCC4)cc3)CC2)O1` [Example 11, 5-[(2S,6R)-2-[[4-cyano-4-(4-piperazin-1-ylphenyl)-1-piperidyl]methyl]-6-methyl-morpholin-4-yl]quinoline-8-carbonitrile] gave an IC50 of 13 nM. For `C[C@@H]1CN(c2ccc(C#N)n3ncc(F)c23)C[C@H](CN2CCN(c3ccc(N4CCOC5(CNC5)C4)nc3)CC2)O1` [Example 178, 3-fluoro-4-[(2R,6S)-2-methyl-6-[[4-[6-(5-oxa-2,8-diazaspiro[3.5]nonan-8-yl)-3-pyridyl]piperazin-1-yl]methyl]morpholin-4-yl]pyrazolo[1,5-a]pyridine-7-carbonitrile], the IC50 was 91 nM. `C[C@@H]1CN(c2ccc(C#N)n3ncc(F)c23)C[C@H](CN2CCN(c3ccc(C[C@@H]4CNCCO4)cc3)CC2)O1` [Example 186, 3-fluoro-4-[(2R,6S)-2-methyl-6-[[4-[4-[[(2R)-morpholin-2-yl]methyl]phenyl]piperazin-1-yl]methyl]morpholin-4-yl]pyrazolo[1,5-a]pyridine-7-carbonitrile] showed an IC50 of 23 nM. Molecule `C[C@@H]1CN(c2cc(=O)n(C)c3ncccc23)C[C@H](CN2CC(c3ccc(N4CC(F)[C@H](N)C4)cc3)C2)O1` (stereo in doubt) [Example 174, 4-[(2S,6R)-2-[[3-[4-[(3R,4R)-3-amino-4-fluoro-pyrrolidin-1-yl]phenyl]azetidin-1-yl]methyl]-6-methyl-morpholin-4-yl]-1-methyl-1,8-naphthyridin-2-one] has an IC50 of 159 nM. `Cc1cc(N2CCN(C[C@H]3CN(c4ccc(C#N)c5ncccc45)C[C@@H](C)O3)CC2)nc(N2CC(N)C(F)C2)n1` (stereo in doubt) [Example 54, 5-[(2S,6R)-2-[[4-[2-[(3S,4R)-3-amino-4-fluoro-pyrrolidin-1-yl]-6-methyl-pyrimidin-4-yl]piperazin-1-yl]methyl]-6-methyl-morpholin-4-yl]quinoline-8-carbonitrile] gave an IC50 of 3 nM. For `Cc1cc(N2CCN(C[C@H]3CN(c4ccc(C(F)(F)F)c5nccnc45)C[C@@H](C)O3)CC2)nc(N2CCNCC2)n1` [Example 65, (2R,6S)-2-methyl-6-[[4-(6-methyl-2-piperazin-1-yl-pyrimidin-4-yl)piperazin-1-yl]methyl]-4-[8-(trifluoromethyl)quinoxalin-5-yl]morpholine], the IC50 was 9 nM. `C[C@@H]1CN(c2cc(=O)n(C)c3ncccc23)C[C@H](CN2CC(c3ccc(N4CC5(CN(C)C5)C4)cc3)C2)O1` [Example 180, 1-methyl-4-[(2R,6S)-2-methyl-6-[[3-[4-(6-methyl-2,6-diazaspiro[3.3]heptan-2-yl)phenyl]azetidin-1-yl]methyl]morpholin-4-yl]-1,8-naphthyridin-2-one] showed an IC50 of 77 nM. Work on `C[C@@H]1CN(c2ccc(C#N)c3ncccc23)C[C@H](CN2CCN(c3ccnc(N[C@H]4CNC[C@H]4F)n3)CC2)O1` [Example 24, 5-[(2S,6R)-2-[[4-[2-[[(3S,4R)-4-fluoropyrrolidin-3-yl]amino]pyrimidin-4-yl]piperazin-1-yl]methyl]-6-methyl-morpholin-4-yl]quinoline-8-carbonitrile] yielded an IC50 of 11 nM. `C[C@@H]1CN(c2ccc(C#N)n3ncc(F)c23)C[C@H](CN2CCN(c3ccc(N4CC5(CNCCO5)C4)nc3)CC2)O1` [Example 169, 3-fluoro-4-[(2R,6S)-2-methyl-6-[[4-[6-(5-oxa-2,8-diazaspiro[3.5]nonan-2-yl)-3-pyridyl]piperazin-1-yl]methyl]morpholin-4-yl]pyrazolo[1,5-a]pyridine-7-carbonitrile] gave an IC50 of 30 nM. With `C[C@@H]1CN(c2ccc(C#N)c3ncccc23)C[C@H](CN2CCN(c3cc(N4CCN(C)CC4)ncn3)CC2)O1` [Example 21, 5-[(2R,6S)-2-methyl-6-[[4-[6-(4-methylpiperazin-1-yl)pyrimidin-4-yl]piperazin-1-yl]methyl]morpholin-4-yl]quinoline-8-carbonitrile] the IC50 was 10 nM.
